According to patent US20030186345A1, “Macromolecular enzyme substrates” (priority 2003, published 2003):

Experiments:
[1] = biological target: T1, pancreatic amylase (Homo sapiens, UniProt P04746); experiment: Amylase assay, Km determination, pancreatic amylase; format: biochemical
T1 construct: purchased Scripps Laboratories (San Diego, Calif.)
T1 sequence (P04746 16-511): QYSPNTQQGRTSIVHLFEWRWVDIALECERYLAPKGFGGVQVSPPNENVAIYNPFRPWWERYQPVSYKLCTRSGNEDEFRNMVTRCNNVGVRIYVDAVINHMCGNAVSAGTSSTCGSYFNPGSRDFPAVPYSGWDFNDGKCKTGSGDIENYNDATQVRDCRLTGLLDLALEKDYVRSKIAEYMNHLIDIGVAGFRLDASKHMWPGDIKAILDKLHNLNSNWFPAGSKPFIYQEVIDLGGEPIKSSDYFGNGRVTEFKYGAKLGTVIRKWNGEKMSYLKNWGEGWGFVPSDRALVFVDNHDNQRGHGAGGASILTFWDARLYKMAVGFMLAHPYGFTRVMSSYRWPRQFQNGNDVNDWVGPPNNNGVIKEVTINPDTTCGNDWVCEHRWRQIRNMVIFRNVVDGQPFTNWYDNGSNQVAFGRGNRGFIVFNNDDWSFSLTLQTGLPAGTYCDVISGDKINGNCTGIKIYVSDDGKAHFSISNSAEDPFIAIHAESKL
Description: Amylase assays using oligosaccharide substrates were automated using a Cobas Fara analyzer (Roche, Basel, Switzerland). Unless indicated, assay temperature was 37° C., and absorbance changes were measured at 405 nm every minute over a 20 minute period. […] Amylases were diluted into assay buffer containing 1 mg/mL rabbit albumin. Final reaction volumes were 200 μL and consisted of 3 solutions, R1, R2, and R3. […] Depending upon the assay, R2 and R3 contained either amylase or substrate. R1 and R2 solutions were mixed for 10 seconds prior to the addition of R3. For immunoinhibition studies, antibodies were preincubated with amylase (R2) for 30 minutes at room temperature prior to the addition of substrate (R3). Unless indicated, final concentrations of MABs were 10 mg/L. Reaction blanks were determined by measuring the absorbance of substrate or enzyme alone at 405 nm. When EtG7pNP or mPEG-EtG7pNP were used as substrates, α-glucosidase was included in the blank measurement. Differences between the test samples and reagent blanks were determined. Activity of stock solutions of amylase was based on activity measured with a Hitachi 917 analyzer using a Roche kit (Cat. No 1876473) (Indianapolis, Ind.) which uses EtG7pNP as the substrate. For Km determinations, 4 or 5 different substrate concentrations (0.05 mmol/L to 6 mmol/L) with salivary (4-20 U/L) or pancreatic (4-40 U/L) amylase were used.

[2] = biological target: T2, salivary amylase (Homo sapiens, UniProt P0DUB6); experiment: Amylase assay, Km determination, salivary amylase; format: biochemical
T2 construct: purchased Sigma (St. Louis, Mo.)
T2 sequence (P0DUB6 16-511): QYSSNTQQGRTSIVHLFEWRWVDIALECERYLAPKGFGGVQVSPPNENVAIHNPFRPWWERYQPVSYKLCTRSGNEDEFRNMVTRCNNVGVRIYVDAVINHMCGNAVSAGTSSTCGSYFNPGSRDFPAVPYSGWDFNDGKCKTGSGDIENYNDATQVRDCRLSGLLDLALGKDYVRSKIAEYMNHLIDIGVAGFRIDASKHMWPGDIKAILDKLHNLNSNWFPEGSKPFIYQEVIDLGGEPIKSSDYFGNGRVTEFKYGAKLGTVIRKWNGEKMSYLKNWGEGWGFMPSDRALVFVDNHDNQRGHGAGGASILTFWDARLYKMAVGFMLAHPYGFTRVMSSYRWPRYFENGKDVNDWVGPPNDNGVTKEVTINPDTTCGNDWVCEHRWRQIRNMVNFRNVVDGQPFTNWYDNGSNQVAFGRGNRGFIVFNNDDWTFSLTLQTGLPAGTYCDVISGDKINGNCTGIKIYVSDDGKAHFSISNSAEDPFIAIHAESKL
Description: (§1) Amylase assays using oligosaccharide substrates were automated using a Cobas Fara analyzer (Roche, Basel, Switzerland). Unless indicated, assay temperature was 37° C., and absorbance changes were measured at 405 nm every minute over a 20 minute period. Assay buffer was either 52.5 mmol/L 4-(2-hydroxyethyl)-1-piperazine-ethanesulfonic acid (HEPES) buffer, pH 7.15, 87 mmol/L sodium chloride, 12.6 mmol/L magnesium chloride, 0.075 mmol/L calcium chloride (HEPES buffer) or 50 mmol/L MES, pH 6.0, 350 mmol/L sodium chloride, 6 mmol/L calcium acetate, 900 mmol/L KSCN (MES buffer). Amylases were diluted into assay buffer containing 1 mg/mL rabbit albumin. Final reaction volumes were 200 μL and consisted of 3 solutions, R1, R2, and R3. […] Depending upon the assay, R2 and R3 contained either amylase or substrate. R1 and R2 solutions were mixed for 10 seconds prior to the addition of R3. For immunoinhibition studies, antibodies were preincubated with amylase (R2) for 30 minutes at room temperature prior to the addition of substrate (R3). Unless indicated, final concentrations of MABs were 10 mg/L. Reaction blanks were determined by measuring the absorbance of substrate or enzyme alone at 405 nm. When EtG7pNP or mPEG-EtG7pNP were used as substrates, α-glucosidase was included in the blank measurement. Differences between the test samples and reagent blanks were determined. Activity of stock solutions of amylase was based on activity measured with a Hitachi 917 analyzer using a Roche kit (Cat. No 1876473) (Indianapolis, Ind.) which uses EtG7pNP as the substrate. For Km determinations, 4 or 5 different substrate concentrations (0.05 mmol/L to 6 mmol/L) with salivary (4-20 U/L) or pancreatic (4-40 U/L) amylase were used.

[3] = biological target: T1, pancreatic amylase; experiment: Immunoinhibition by MABs, pancreatic amylase, oligosaccharide substrates; format: biochemical; conditions: pancreatic isoenzyme, 40 U/I (G5, G7 substrates) or 400 U/I (G3 substrates), 100% = no MAB; for % activity with MAB 66C7 / % activity with MAB 88E8: MAB 10 mg/L
Description: as §1

[4] = biological target: T1, pancreatic amylase; experiment: Immunoinhibition by polyclonal antiamylase antisera, pancreatic amylase; format: biochemical
Description: (§2) Amylase assays using oligosaccharide substrates were automated using a Cobas Fara analyzer (Roche, Basel, Switzerland). Unless indicated, assay temperature was 37° C., and absorbance changes were measured at 405 nm every minute over a 20 minute period. Assay buffer was either 52.5 mmol/L 4-(2-hydroxyethyl)-1-piperazine-ethanesulfonic acid (HEPES) buffer, pH 7.15, 87 mmol/L sodium chloride, 12.6 mmol/L magnesium chloride, 0.075 mmol/L calcium chloride (HEPES buffer) or 50 mmol/L MES, pH 6.0, 350 mmol/L sodium chloride, 6 mmol/L calcium acetate, 900 mmol/L KSCN (MES buffer). Amylases were diluted into assay buffer containing 1 mg/mL rabbit albumin. […] Unless indicated, final concentrations of MABs were 10 mg/L. Reaction blanks were determined by measuring the absorbance of substrate or enzyme alone at 405 nm. […] Differences between the test samples and reagent blanks were determined. Activity of stock solutions of amylase was based on activity measured with a Hitachi 917 analyzer using a Roche kit (Cat. No 1876473) (Indianapolis, Ind.) which uses EtG7pNP as the substrate. […]
(§3) The effects of two different polyclonal antiamylase immunoglobulin preparations on salivary and pancreatic amylase activity using mPEG-coupled and uncoupled substrates were tested. […] 100% amylase activity was determined in the absence of any antibody.

[5] = biological target: T2, salivary amylase; experiment: Extent of cleavage of substrates by excess salivary amylase; format: biochemical
Description: Substrates were diluted into HEPES buffer and absorbances were recorded between 250 nm and 500 nm. To determine the maximum amount of substrate that could be cleaved with amylase, substrates were incubated with 60 units/mL of salivary amylase. When EtG7pNP and mPEG-EtG7pNP were used, 4 units/mL of α-glucosidase were included in the incubation.
To determine the maximal amount of mPEG-coupled and uncoupled substrate that could be cleaved by amylase, substrates were incubated with excess salivary amylase and the amount of free chromophore released was determined by measuring absorptions between 250 nm and 500 nm during amylase digestion. […] Incubations were monitored until endpoints of reactions were approached. α-Glucosidase was included in the incubation when EtG7pNP and mPEG-EtG7pNP were used as substrates.

[6] = biological target: T2, salivary amylase; experiment: Immunoinhibition by polyclonal antiamylase antisera, salivary amylase; format: biochemical
Description: as §2, §3

[7] = biological target: T2, salivary amylase; experiment: Immunoinhibition by MABs, salivary amylase, oligosaccharide substrates; format: biochemical; conditions: salivary isoenzyme, 20 U/I (G5, G7 substrates) or 600 U/I (G3 substrates), 100% = no MAB; for % activity with MAB 66C7 / % activity with MAB 88E8: MAB 10 mg/L
Description: as §1
When both MABs were used, MAB 88E8 concentrations were varied in the presence of 10 mg/L MAB 66C7. At an antibody concentration of 10 mg/L, MAB 88E8 inhibits 98% of salivary amylase activity in HEPES buffer and 34% of salivary amylase activity in MES buffer. MAB 66C7 increases salivary amylase activity in HEPES buffer and has no effect on salivary amylase activity in MES buffer. Using a mixture of MABs 88E8 and 66C7 at concentrations of […], >99% of salivary amylase activity is inhibited in HEPES buffer and 73% of salivary amylase activity is inhibited in MES buffer. When the pH of the MES buffer was increased from 6.0 to 6.5 and the concentration of KSCN was decreased from 900 mmol/L to 300 mmol/L, >97% of salivary amylase activity was inhibited by MAB 88E8.

[8] = system: pancreatic and salivary amylase; experiment: Lag phase of amylase reaction; format: biochemical, human; conditions: purified pancreatic and salivary amylase; Cobas Fara analyzer
Description: as §2, with “albumin. Final reaction volumes were 200 μL and consisted of 3 solutions, R1, R2, and R3. […] Depending upon the assay, R2 and R3 contained either amylase or substrate. R1 and R2 solutions were mixed for 10 seconds prior to the addition of R3.” for “albumin.”

[9] = 37° C., pH 6.5 in MES buffer containing 300 mM KSCN

SMILES	Km ([1]; 37° C., HEPES buffer pH 7.15)	Km ([2]; 37° C., HEPES buffer pH 7.15)	% activity with MAB 88E8 + 66C7 [3]	% activity with MAB 66C7 [3]	% activity with MAB 88E8 [3]	Fold lower concentration of antibody inhibiting cleavage than for G3ClpNP [4]	Substrate cleaved by salivary amylase and α-glucosidase ([5]; digestion for 60 minutes)	Fold lower concentration of antibody inhibiting cleavage than for G3ClpNP [6]	% activity with MAB 88E8 + 66C7 [7]	% activity with MAB 66C7 [7]	% activity with MAB 88E8 [7]	Km ([1]; 25° C., HEPES buffer pH 7.15)	Km [1, 9]	Km ([2]; 25° C., HEPES buffer pH 7.15)	Km [2, 9]	CNP released by salivary amylase ([5]; excess salivary amylase, 40 minutes at room temperature)	Lag phase, time to reach maximal rates [8]
CC1OC[C@H]2O[C@H](O[C@H]3[C@H](O)[C@@H](O)[C@@H](O[C@H]4[C@H](O)[C@@H](O)[C@@H](O[C@H]5[C@H](O)[C@@H](O)[C@@H](O[C@H]6[C@H](O)[C@@H](O)[C@@H](O[C@H]7[C@H](O)[C@@H](O)[C@@H](O[C@H]8[C@H](O)[C@@H](O)[C@@H](Oc9ccc([N+](=O)[O-])cc9)O[C@@H]8CO)O[C@@H]7CO)O[C@@H]6CO)O[C@@H]5CO)O[C@@H]4CO)O[C@@H]3CO)[C@H](O)[C@@H](O)[C@@H]2O1 (stereo partly drawn) [EtG7pNP, 4,6-O-ethylidene p-nitrophenyl-α-D-maltoheptaoside]	170 µM	130 µM	96%	105%	96%	~3 fold	~90%	> 50 fold	2%	105%	6%	–	–	–	–	–	–
O=[N+]([O-])c1ccc(O[C@H]2O[C@H](CO)[C@@H](O[C@H]3O[C@H](CO)[C@@H](O[C@H]4O[C@H](CO)[C@@H](O)[C@H](O)[C@H]4O)[C@H](O)[C@H]3O)[C@H](O)[C@H]2O)c(Cl)c1 [Substrate G3ClpNP, 2-chloro-p-nitrophenol-α-D-maltotrioside]	2200 µM	6900 µM	103%	117%	103%	–	–	–	1%	104%	3%	1300 µM	610 µM	4600 µM	2000 µM	~90%	little or no lag phase
